Measured values reported in patent US5633229A, “Method of using prophenins-antibiotic peptides” (University of California, priority 1995, dated 1997).
Where no end group is shown, it is not given here.

What was measured:
[1] = system: lipid polysaccharide (LPS) of the Gram-negative bacterium E. coli strain 0.55B5; test: Limulus amebocyte lysate (LAL) test for endotoxin binding; format: biochemical; parameters: key to LPS-induced gel formation of E-TOXATE (Table 3): ++: a solid gel (no inhibition); +: increased viscosity without solid gel formation (partial inhibition); 0: gelation was absent (complete inhibition); conditions: for LPS-induced gel formation of E-TOXATE (Table 3): 60 minutes at 37° C.
Protocol: The prophenins of the invention were tested for their ability to bind the lipid polysaccharide (LPS) of the Gram-negative bacterium E. coli strain 0.55B5. The assay was the Limulus amebocyte lysate (LAL) test for endotoxins conducted in the presence and absence of the test compounds. The test was conducted using the procedure described in Sigma Technical Bulletin No. 210 as revised in Dec. 1992 and published by Sigma Chemical Company, St. Louis, Mo.
The LAL test is based on the ability of LPS to effect gelation in the commercial reagent E-TOXATE™ which is prepared from the lysate of circulating amebocytes of the Horseshoe Crab Limulus polyphemus. As described in the technical bulletin, when exposed to minute quantities of LPS, the lysate increases in opacity as well as viscosity and may gel or clot depending on the concentration of endotoxin. The technical bulletin goes on to speculate that the mechanism appears analogous to the clotting of mammalian blood and involves the steps of activation of a trypsin-like preclotting enzymes by the LPS in the presence of calcium ion, followed by enzymic modifications of a "coagulogen" by proteolysis to produce a clottable protein. These steps are believed tied to the biologically active or "pyrogenic" portion of the molecule. It has been shown previously that detoxified LPS (or endotoxin) gives a negative LAL test.
In the assay, the amounts of prophenin-1 and polymyxin B (78% free polymyxin, Sigma) were preincubated in a final volume of 0.2 ml and the test mixtures contained LPS at a final concentration of 0.05 endotoxin unit/ml and E-TOXATE™ at the same concentration. The test compounds were incubated together with the LPS for 15 minutes before the E-TOXATE™ was added to a final volume (after E-TOXATE™ addition) of 0.2 ml. The tubes were then incubated for 60 minutes at 37° C. and examined for the formation of a gel.

C. albicans, strain 820 = test: radial diffusion assay in agarose gels, C. albicans; format: cell-based; conditions: for minimal microbicidal concentration: Target C. albicans; for inhibitory activity against C. albicans (FIG. 4c): result in words
Protocol: (§1) Aliquots (66 μl ) of each fraction were dried by vacuum centrifugation, and resuspended in approximately 6.6 μl of 0.01% acetic acid. Five μl samples of this concentrate were tested for antimicrobial activity against E. coli ML-35, L. monocytogenes, Strain EGD and C. albicans, strain 820 by radial diffusion and gel overlay techniques (Lehrer, R. I. et al. J Immunol Meth (1991) 137:167-173). Active fractions were further examined by acid-urea PAGE and SDS-PAGE. Prophenins emerged from the P10 column in fractions 38-43 (39.6 ml total volume), which contained a total of 18 mg protein BCA analysis.
(§2) The radial diffusion assay in agarose gels as described above was also used to test the activity of the purified prophenins. Samples of 5 μL each were added to 3 mm wells in thin gels composed of 10 mM sodium phosphate, 30 mg/ml trypticase soy broth powder in 1% agarose and containing approximately 4×10^5 CFU/ml of mid-log phase organisms. After allowing 3 hours for the samples to diffuse into the underlayer gel, a nutrient-rich overlay gel was poured and the plates were incubated for 24 hours at 37° C. to allow surviving organisms to form microcolonies. The diameters of the clear zones were measured and expressed in "units" (10 units=1 mm) as described previously.

[2] = system: L. monocytogenes, Strain EGD; test: radial diffusion assay in agarose gels, L. monocytogenes; format: cell-based; conditions: Target L. monocytogenes
Protocol: as §1, §2

E. coli ML-35 = test: radial diffusion assay in agarose gels, E. coli; format: cell-based; conditions: for minimal microbicidal concentration: Target E. coli
Protocol: as §1, §2

## Polymyxin B
[1]; LAL test, LPS 0.05 endotoxin unit/ml
  concentration giving complete inhibition of gelation: 5 µg/mL
[1]; LAL test, converted from μg/ml
  concentration giving complete inhibition of gelation, molar: ≈ 4.2 μM
[1]; peptide 0.16 μg/ml, LPS 0.05 endotoxin unit/ml
  LPS-induced gel formation of E-TOXATE (Table 3): ++
[1]; peptide 0.31 μg/ml, LPS 0.05 endotoxin unit/ml
  LPS-induced gel formation of E-TOXATE (Table 3): ++
[1]; peptide 0.63 μg/ml, LPS 0.05 endotoxin unit/ml
  LPS-induced gel formation of E-TOXATE (Table 3): ++
[1]; peptide 1.25 μg/ml, LPS 0.05 endotoxin unit/ml
  LPS-induced gel formation of E-TOXATE (Table 3): ++
[1]; peptide 2.5 μg/ml, LPS 0.05 endotoxin unit/ml
  LPS-induced gel formation of E-TOXATE (Table 3): +
[1]; peptide 5.0 μg/ml, LPS 0.05 endotoxin unit/ml
  LPS-induced gel formation of E-TOXATE (Table 3): 0
[1]; peptide 10.0 μg/ml, LPS 0.05 endotoxin unit/ml
  LPS-induced gel formation of E-TOXATE (Table 3): 0

## HNP-2: column head of Table 2; probably the human defensin control named HNP-1 in the text (CYCRIPACIAGERRYGTCIYQGRLWAFCC; ends and bridges not checked; cysteine pairing not given here; UniProt P59665 66-94, looked up)
C. albicans, strain 820
  minimal microbicidal concentration: > 150 µg/mL
[2]
  minimal microbicidal concentration: 12.0 µg/mL
E. coli ML-35
  minimal microbicidal concentration: 80.0 µg/mL

## HNP-1: human defensin (HNP-1), control
C. albicans, strain 820
  inhibitory activity against C. albicans (FIG. 4c): substantially noninhibitory

## PG-3: protegrin-3 (PG3), control (RGGGLCYCRRRFCVCVGR; ends and bridges not checked; cysteine pairing not given here; UniProt P32196 131-148, looked up)
C. albicans, strain 820
  minimal microbicidal concentration: 6.9 µg/mL
  inhibitory activity against C. albicans (FIG. 4c): successful antifungals
[2]
  minimal microbicidal concentration: 9.0 µg/mL
E. coli ML-35
  minimal microbicidal concentration: 8.6 µg/mL
E. coli ML-35; result in words
  inhibitory activity against E. coli ML-35 (FIG. 4a): more inhibitory than HNP-1
